Results taken from ChEMBL document CHEMBL1201862, “PubChem BioAssay data set” (2004).
Structures can show the parent of a compound that is named as a salt. Each block holds one compound with its values, some of them ahead of it. Active and inactive are the calls of the source.

What was measured:
[1] = molecular target: 26S proteasome non-ATPase regulatory subunit 14 (Homo sapiens, UniProt O00487); assay: inhibition of proteasome subunit RPN11 – biochemical, fluorescence polarization, uHTS hits, confirmation (AID 602368); assay type: functional
26S proteasome non-ATPase regulatory subunit 14, sequence (O00487 whole entry): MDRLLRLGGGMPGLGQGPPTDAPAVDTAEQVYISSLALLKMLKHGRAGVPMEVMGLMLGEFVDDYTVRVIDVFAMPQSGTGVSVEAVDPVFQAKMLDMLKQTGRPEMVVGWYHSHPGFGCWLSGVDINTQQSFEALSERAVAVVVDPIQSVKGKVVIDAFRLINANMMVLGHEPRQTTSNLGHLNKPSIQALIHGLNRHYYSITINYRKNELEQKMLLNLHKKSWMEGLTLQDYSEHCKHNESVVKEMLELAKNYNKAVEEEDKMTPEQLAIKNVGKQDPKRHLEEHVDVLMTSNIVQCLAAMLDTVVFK

[2] = molecular target: 72 kDa type IV collagenase (Homo sapiens, UniProt P08253); assay: Dose Response validation of uHTS RPN11 inhibitor hits using a MMP-2 Fluorescence assay.; assay type: functional
72 kDa type IV collagenase, sequence (P08253 whole entry): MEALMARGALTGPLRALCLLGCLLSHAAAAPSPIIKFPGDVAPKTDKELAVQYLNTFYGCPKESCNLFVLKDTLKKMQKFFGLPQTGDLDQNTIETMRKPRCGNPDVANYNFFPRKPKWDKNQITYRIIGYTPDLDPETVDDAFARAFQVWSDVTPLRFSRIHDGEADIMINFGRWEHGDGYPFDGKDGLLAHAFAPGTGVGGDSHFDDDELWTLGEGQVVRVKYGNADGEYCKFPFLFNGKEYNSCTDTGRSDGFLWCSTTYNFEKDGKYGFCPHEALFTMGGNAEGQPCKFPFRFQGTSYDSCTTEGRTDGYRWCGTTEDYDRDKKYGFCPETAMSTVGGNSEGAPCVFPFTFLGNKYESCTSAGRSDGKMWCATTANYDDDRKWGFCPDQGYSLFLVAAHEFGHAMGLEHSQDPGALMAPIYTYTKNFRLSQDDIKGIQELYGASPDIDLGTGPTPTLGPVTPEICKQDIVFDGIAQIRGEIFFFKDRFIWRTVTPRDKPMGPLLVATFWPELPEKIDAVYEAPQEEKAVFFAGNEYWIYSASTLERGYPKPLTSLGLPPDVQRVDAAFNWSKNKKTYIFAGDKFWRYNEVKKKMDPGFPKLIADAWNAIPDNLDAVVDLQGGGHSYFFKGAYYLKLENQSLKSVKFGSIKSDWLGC

[3] = molecular target: Prothrombin (Bos taurus, UniProt P00735); assay: thrombin inhibition, dose response, biochemical, fluorescence polarization, uHTS hits (AID 602369); assay type: functional
[4] = molecular target: Cytochrome P450 2D6 (Homo sapiens, UniProt P10635);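 note: CYP2D6 member of a cytochrome P450 panel assay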
Cytochrome P450 2D6, sequence (P10635 whole entry): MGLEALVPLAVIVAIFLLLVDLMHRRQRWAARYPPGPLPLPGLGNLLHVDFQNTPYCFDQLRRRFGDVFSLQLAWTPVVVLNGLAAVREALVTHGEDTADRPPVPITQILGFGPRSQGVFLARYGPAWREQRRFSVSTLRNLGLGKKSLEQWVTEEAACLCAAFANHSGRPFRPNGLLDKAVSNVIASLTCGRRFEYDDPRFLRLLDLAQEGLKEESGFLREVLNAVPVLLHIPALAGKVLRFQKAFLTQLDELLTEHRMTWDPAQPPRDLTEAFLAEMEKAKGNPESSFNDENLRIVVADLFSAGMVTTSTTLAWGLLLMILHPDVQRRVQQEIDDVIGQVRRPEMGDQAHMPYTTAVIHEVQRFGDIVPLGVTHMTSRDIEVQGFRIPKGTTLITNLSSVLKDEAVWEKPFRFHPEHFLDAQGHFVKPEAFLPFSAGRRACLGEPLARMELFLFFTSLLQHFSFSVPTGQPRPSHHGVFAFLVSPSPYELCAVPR

[5] = molecular target: T1, Cytochrome P450 1A2 (Homo sapiens, UniProt P05177);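 note: PubChem cytochrome P450 panel assay, CYP1A2 panel member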
T1 sequence (P05177 whole entry): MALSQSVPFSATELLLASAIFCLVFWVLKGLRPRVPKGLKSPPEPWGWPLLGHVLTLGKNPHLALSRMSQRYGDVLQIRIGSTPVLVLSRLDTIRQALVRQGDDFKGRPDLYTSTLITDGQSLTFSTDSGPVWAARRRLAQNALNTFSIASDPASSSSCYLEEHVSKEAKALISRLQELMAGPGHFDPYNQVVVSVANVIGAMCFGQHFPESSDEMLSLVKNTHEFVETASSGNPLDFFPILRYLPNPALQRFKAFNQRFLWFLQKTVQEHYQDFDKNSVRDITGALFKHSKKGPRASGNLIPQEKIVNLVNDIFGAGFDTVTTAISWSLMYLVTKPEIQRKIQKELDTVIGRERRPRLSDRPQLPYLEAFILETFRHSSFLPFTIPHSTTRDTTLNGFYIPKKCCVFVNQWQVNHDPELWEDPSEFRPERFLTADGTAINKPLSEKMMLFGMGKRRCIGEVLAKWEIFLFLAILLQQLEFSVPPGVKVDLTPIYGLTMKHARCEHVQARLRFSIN

[6] = CAL PDZ domain peptide-binding inhibitors, dose response, biochemical, fluorescence polarization, untagged CAL PDZ, cherry-pick, set 2 (AID 602254); assay type: functional
[7] = molecular target: Melanocortin receptor 4 (Homo sapiens, UniProt P32245); assay: MC4R antagonist potency on cAMP, dose response, cell-based, TR-FRET, biased antagonists (AID 602298); assay type: functional;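 note: antagonist potency against agonist-stimulated cAMP production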
Melanocortin receptor 4, sequence (P32245 whole entry): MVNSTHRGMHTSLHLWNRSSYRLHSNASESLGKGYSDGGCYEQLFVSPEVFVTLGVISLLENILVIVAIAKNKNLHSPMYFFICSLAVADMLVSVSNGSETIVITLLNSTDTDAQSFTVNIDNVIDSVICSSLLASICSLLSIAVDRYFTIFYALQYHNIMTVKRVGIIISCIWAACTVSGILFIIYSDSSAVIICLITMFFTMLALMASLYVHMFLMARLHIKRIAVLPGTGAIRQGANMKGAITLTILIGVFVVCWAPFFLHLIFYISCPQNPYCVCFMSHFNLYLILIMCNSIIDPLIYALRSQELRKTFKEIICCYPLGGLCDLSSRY

[8] = nonselective inhibitors of cellular cAMP signaling, dose response, counter-screen for MC4R biased antagonist project, cell-based, TR-FRET cAMP detection (AID 602305); assay type: functional;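 note: U2OS cells stimulated with forskolin near its EC80 as the cAMP inducer; potency is for inhibition of forskolin-stimulated cAMP signaling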
[9] = molecular target: SUMO-activating enzyme (Homo sapiens, UniProt Q9UBT2); assay: inhibitors of in vitro SUMOylation cascade, primary screen, biochemical, HTRF, uHTS (AID 2006); assay type: protein-complex assay
SUMO-activating enzyme, sequence (Q9UBE0 whole entry): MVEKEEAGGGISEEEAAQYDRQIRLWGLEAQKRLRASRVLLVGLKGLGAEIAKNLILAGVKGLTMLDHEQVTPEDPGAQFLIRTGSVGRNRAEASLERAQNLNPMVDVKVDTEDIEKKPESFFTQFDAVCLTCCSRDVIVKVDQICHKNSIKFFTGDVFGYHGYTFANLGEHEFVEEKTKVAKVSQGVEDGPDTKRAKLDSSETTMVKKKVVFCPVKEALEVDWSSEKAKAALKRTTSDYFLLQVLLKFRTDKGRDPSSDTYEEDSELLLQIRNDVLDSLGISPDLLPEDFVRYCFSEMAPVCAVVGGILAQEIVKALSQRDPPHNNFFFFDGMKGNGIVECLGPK
SUMO-activating enzyme, sequence (Q9UBT2 whole entry): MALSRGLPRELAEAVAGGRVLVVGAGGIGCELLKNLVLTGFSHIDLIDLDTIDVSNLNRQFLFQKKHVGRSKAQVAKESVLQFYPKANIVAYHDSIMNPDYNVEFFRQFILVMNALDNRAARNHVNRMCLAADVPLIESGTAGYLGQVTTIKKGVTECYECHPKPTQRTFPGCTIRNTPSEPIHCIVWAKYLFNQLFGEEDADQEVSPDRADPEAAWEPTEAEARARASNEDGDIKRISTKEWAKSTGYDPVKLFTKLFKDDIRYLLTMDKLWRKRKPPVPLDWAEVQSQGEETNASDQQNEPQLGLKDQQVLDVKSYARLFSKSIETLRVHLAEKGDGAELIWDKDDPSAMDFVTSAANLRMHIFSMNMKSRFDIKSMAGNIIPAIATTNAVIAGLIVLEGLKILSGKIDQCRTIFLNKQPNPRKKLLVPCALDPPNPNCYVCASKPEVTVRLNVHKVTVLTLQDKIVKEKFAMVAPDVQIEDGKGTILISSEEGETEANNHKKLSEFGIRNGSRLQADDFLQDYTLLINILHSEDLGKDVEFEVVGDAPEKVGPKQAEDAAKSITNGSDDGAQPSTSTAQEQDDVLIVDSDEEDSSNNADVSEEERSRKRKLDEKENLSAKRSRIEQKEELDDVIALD

[10] = molecular target: T2, Bcl-2-related protein A1 (Mus musculus, UniProt Q07440); assay type: functional;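 note: confirmatory dose–response counterscreen on Bfl-1, used to check hits from a UBC13 polyubiquitin inhibitor campaign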
T2 sequence (Q07440 whole entry): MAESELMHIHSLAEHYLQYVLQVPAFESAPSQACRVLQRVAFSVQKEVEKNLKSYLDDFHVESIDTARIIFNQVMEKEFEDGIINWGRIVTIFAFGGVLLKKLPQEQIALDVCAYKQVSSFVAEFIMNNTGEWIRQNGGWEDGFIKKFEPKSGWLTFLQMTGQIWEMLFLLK

[11] = molecular target: T3, Ubiquitin-conjugating enzyme E2 N (Homo sapiens, UniProt P61088); assay type: functional
T3 sequence (P61088 whole entry): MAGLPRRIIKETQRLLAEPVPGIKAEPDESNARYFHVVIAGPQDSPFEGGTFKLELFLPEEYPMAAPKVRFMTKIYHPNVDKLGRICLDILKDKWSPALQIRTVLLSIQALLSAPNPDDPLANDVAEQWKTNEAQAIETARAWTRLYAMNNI

[12] = molecular target: T3, Ubiquitin-conjugating enzyme E2 N; assay type: functional; remark: listed apart in the source
[13] = molecular target: T4, Insulin-degrading enzyme (Homo sapiens, UniProt P14735); assay: activators of recombinant IDE enzyme, dose response, counter-screen for IDE activator project, biochemical, fluorescence polarization (AID 588681)
T4 sequence (P14735 whole entry): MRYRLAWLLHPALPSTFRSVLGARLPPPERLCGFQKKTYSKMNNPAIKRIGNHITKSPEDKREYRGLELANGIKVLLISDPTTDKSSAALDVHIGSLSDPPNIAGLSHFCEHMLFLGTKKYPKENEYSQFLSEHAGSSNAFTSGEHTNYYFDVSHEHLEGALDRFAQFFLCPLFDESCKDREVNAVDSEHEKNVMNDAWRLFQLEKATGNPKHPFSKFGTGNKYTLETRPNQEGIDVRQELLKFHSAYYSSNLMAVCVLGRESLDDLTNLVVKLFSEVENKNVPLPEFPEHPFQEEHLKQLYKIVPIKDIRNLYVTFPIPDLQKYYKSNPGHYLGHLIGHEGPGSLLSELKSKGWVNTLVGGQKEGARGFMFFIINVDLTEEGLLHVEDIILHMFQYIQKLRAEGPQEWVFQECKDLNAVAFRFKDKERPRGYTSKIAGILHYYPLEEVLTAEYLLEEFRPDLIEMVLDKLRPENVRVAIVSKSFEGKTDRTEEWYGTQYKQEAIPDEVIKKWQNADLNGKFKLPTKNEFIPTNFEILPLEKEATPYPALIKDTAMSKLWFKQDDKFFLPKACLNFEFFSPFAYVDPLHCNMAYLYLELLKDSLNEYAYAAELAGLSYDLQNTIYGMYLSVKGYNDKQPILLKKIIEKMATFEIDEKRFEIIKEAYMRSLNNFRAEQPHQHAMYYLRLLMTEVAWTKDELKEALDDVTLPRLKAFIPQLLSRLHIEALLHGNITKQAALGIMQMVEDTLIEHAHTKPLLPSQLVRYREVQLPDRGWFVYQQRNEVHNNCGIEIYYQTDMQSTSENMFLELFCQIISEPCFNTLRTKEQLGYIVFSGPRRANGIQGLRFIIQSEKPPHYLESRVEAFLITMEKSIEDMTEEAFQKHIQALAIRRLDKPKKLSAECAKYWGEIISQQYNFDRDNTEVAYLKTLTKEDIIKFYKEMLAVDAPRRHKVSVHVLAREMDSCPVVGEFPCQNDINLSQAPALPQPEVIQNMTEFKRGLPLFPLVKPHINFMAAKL

[14] = molecular target: T5, Apoptotic protease-activating factor 1 (Homo sapiens, UniProt O14727); assay type: functional
T5 sequence (O14727 whole entry): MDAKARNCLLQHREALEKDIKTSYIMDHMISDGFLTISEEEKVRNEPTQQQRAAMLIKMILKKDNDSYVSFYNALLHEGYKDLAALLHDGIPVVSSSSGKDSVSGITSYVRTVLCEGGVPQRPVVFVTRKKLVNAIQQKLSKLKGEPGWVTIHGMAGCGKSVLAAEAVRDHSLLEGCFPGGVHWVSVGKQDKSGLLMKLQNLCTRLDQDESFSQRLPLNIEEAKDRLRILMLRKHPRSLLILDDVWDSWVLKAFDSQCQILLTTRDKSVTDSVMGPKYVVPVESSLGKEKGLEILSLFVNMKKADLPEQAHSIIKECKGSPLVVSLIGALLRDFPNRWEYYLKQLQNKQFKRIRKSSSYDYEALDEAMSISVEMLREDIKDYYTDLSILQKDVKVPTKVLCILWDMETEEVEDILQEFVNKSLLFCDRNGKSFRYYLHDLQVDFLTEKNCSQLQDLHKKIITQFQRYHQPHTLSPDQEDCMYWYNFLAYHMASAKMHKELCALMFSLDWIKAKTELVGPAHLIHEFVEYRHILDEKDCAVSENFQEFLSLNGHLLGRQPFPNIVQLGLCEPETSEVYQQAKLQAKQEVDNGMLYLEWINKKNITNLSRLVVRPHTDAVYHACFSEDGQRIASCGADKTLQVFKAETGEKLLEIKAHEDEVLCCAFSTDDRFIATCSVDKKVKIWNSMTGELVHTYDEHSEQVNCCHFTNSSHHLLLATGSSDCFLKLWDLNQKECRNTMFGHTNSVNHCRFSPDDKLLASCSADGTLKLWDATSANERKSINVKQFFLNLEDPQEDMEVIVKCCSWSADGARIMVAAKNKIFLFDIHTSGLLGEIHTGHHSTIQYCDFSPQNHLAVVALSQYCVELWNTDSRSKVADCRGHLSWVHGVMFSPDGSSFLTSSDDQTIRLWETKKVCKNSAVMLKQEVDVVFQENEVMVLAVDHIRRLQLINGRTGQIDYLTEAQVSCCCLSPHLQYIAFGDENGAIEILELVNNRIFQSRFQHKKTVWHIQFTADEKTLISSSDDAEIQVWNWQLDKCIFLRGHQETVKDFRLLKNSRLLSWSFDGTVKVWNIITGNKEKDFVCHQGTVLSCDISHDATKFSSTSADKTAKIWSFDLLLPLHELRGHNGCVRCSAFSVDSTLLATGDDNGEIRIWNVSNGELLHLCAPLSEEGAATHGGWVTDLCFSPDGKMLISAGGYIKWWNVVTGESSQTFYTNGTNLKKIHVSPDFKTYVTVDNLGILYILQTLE

[15] = molecular target: T4, Insulin-degrading enzyme; assay: activators of endogenous IDE in HEK cells, dose response, cell-based, fluorescence polarization (AID 588439); assay type: functional
[16] = test system: HEK293; assay: HEK cell cytotoxicity by LDH release, dose response, cytotoxicity control for IDE activator project, fluorescence, HEK cells (AID 588440); assay type: functional, cell-based; settings: Homo sapiens;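 note: cytotoxicity by LDH release measuring loss of membrane integrity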
[17] = test system: HEK293; assay: optical interference in Abeta FP readout, dose response, artefact control for IDE activator project, biochemical, fluorescence polarization (AID 588442); assay type: functional, cell-based; settings: Homo sapiens
[18] = Luminescence Cell-Based Dose Retest to Confirm Inhibitors of Cancer Stem Cells. [Related pubchem assays (depositor defined):AID2717, AID2721]; assay type: functional; settings: Homo sapiens
[19] = molecular target: Neurotensin receptor type 1 (Homo sapiens, UniProt P30989); assay type: functional;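 note: Image-based confirmatory dose-response assay measuring agonist activity at NTR1; NTR1-expressing U2OS osteosarcoma cells imaged for beta-arrestin GFP spot formation; agonist potency where compounds increase beta-arrestin recruitment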
Neurotensin receptor type 1, sequence (P30989 whole entry): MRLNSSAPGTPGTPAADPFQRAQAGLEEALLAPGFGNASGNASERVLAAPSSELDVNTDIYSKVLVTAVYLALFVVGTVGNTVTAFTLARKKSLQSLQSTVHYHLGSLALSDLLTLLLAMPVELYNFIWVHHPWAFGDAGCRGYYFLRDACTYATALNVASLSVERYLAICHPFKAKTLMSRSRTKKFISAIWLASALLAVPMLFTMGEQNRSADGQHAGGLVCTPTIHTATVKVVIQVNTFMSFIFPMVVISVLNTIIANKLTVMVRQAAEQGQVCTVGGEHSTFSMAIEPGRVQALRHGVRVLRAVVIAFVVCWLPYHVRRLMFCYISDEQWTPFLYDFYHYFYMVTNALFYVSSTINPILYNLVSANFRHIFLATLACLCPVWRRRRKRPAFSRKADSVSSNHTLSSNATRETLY

[20] = cytotoxicity in HEK-293T cells, dose response, cytotoxicity control for BCR NF-kB inhibitor project, luminescence, B-cell screen hits (AID 489021); assay type: functional, cell-based;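 note: HEK-293T cells carrying an NF-kB luciferase reporter; cells exposed to compound for about 14 hours before viability readout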
[21] = test system: HEK293; assay: inhibitors of LMP1-driven NF-kB reporter, dose response, cell-based, HEK293, luciferase, cherry-pick (AID 588343); assay type: functional; settings: Homo sapiens
[22] = test system: INS1; assay: beta cell apoptosis inhibitors, cytokine rescue, dose response, luminescence, retest (AID 449756); assay type: functional, cell-based; settings: Rattus norvegicus;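 note: cell death triggered by IL-1 beta plus TNF-alpha plus IFN-gamma mixture; protective hits raise ATP signal compared with cytokine alone wells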

IC50 [1]: 34.5 µM (active)
IC50 [2]: > 100 µM (inactive)
IC50 [3]: 51.6 µM (active)
AC50 [4]: 31.6 µM (inconclusive)
AC50 [5]: 1.58 µM (inconclusive)
Structure (SMILES): CN1/C(=C\C(=O)COC(=O)Cn2nnc(-c3ccccc3)n2)C(C)(C)c2ccccc21

Structure (SMILES): Cc1cc2ccccc2n1CCNCc1c(C(=O)N2CCOCC2)nc2ccccn12
AC50 [6]: 110 µM (active)

Structure (SMILES): CCOC(=O)c1c(NC(=O)C(C)OC(=O)C2=COCCO2)sc2c1CCCC2 (configuration not stated)
IC50 [7]: > 7.18 µM (active)
IC50 [8]: > 64.6 µM (inactive)

IC50 [9]: 49.8 µM (active)
IC50 [1]: 8.54 µM (active)
IC50 [2]: > 100 µM (inactive)
IC50 [3]: > 100 µM (inactive)
Structure (SMILES): Sc1nnc(-c2cc(-c3ccccc3)[nH]n2)n1/N=C/c1ccc(Cl)c(Cl)c1

Structure (SMILES): C#CCOCCOCCOCCNc1nc(N2CCN(C(=O)CCCCCCCCCCNC(=O)Cn3cc(CCCCCN)nn3)CC2)nc(N2CCN(C(=O)CCCCCCCCCCNC(=O)[C@@H]([C@H](C)O)n3cc(C)nn3)CC2)n1
IC50 [10]: > 20 µM (inactive)
IC50 [11]: 10.7 µM (active)
IC50 [12]: 6.62 µM (active)
EC50 [13]: > 54.7 µM (inactive)
IC50 [14]: 36.7 µM (active)
EC50 [15]: > 6.07 µM (active)
IC50 [16]: 17.8 µM (inactive)
EC50 [17]: > 54.7 µM (inactive)

Structure (SMILES): CNC(=O)c1cc(Oc2ccc(NC(=O)Nc3ccc(Cl)c(C(F)(F)F)c3)cc2)ccn1 [SORAFENIB TOSYLATE]
AC50 [18]: 2.04 µM (active)
EC50 [19]: 14.6 µM (active)
IC50 [20]: 70.6 µM (inactive)
AC50 [21]: 1.6 µM (active)
AC50 [22]: 6.78 µM (active)
IC50 [7]: 4.48 µM (active)
IC50 [8]: > 64.6 µM (inactive)
